Data from patent publication US20260285857A1, “BICYCLIC AND HETEROCYCLIC AMIDE COMPOUNDS” (priority 2024, published 2026).
Read-outs that look alike come from different tables or passages of the source.

Test system: immunoglobulin light chain protein WIL-FL T46L
Experiment: Differential scanning fluorimetry (thermal shift) assay
Assay type: binding
[1] = Table A, temperature shift [Tm]compound-[Tm]vehicle, recombinant WIL-FL T46L

Row | SMILES | DSF [1] | DSF
1 | Cc1cc(N2CC3(CC[C@@H]3c3ccccc3)C2)cn2nc(C(=O)N3CC[C@@]4(CCN(c5cccc(C(=O)[O-])n5)C4)C3)nc12.[Li+] [Compound 24B, lithium 6-((R)-7-(8-methyl-6-((R)-5-phenyl-2-azaspiro[3.3]heptan-2-yl)-[1,2,4]triazolo[1,5-a]pyridine-2-carbonyl)-2,7-diazaspiro[4.4]nonan-2-yl)picolinate] | ***** (>2.5° C.=*****) | 
2 | Cc1ncn(C2(C)CCN(c3cc(C)c4nc(C(=O)N5C[C@@H]6CN(c7cccc(C(=O)O)n7)C[C@@H]6C5)nn4c3)C2=O)n1 (stereo partly drawn) [Compound 25, 6-((3aR,6aS)-5-(8-methyl-6-(3-methyl-3-(3-methyl-1H-1,2,4-triazol-1-yl)-2-oxopyrrolidin-1-yl)-[1,2,4]triazolo[1,5-a]pyridine-2-carbonyl)hexahydropyrrolo[3,4-c]pyrrol-2(1H)-yl)picolinic acid] | * (0-0.5° C.=*) | 
3 | Cc1cc(N2CC[C@](C)(c3ccccc3)C2)cn2nc(S(=O)(=O)NC3CNC3)nc12 [Compound 27, N-(azetidin-3-yl)-8-methyl-6-[(3R)-3-methyl-3-phenyl-pyrrolidin-1-yl]-[1,2,4]triazolo[1,5-a]pyridine-2-sulfonamide] | ***** (>2.5° C.=*****) | 
4 | Cc1cc(N2CC[C@](c3ccccc3)(C(F)F)C2)cn2nc(C(=O)NCC(C)(C)O)nc12 [Compound 28, 6-[(3R)-3-(difluoromethyl)-3-phenyl-pyrrolidin-1-yl]-N-(2-hydroxy-2-methyl-propyl)-8-methyl-[1,2,4]triazolo[1,5-a]pyridine-2-carboxamide] | **** (>1.5-2.5° C.=****) | 
5 | Cc1cc(N2CC[C@](C)(c3ccccc3)C2)cn2nc(C(=O)NC3CC4(CCC4N4CC5C(C4)C5C(=O)O)C3)nc12 (stereo partly drawn) [Compound 31, 3-[2-[[8-methyl-6-[(3R)-3-methyl-3-phenyl-pyrrolidin-1-yl]-[1,2,4]triazolo[1,5-a]pyridine-2-carbonyl]amino]spiro[3.3]heptan-7-yl]-3-azabicyclo[3.1.0]hexane-6-carboxylic acid] | ***** (>2.5° C.=*****) | 
6 | CNC(=O)c1nc2c(C)cc(N3CC[C@](C)(c4cccc(F)c4)C3)cn2n1 [Compound 32] |  | ***** (key: 0-0.5° C.=*; >0.5-1 °C =**; >1-1.5° C.=***; >1.5-2.5° C.=****; >2.5° C.=*****)
7 | CCC1(c2ccccc2)CN(c2cc(C)c3nc(C(=O)NC)nn3c2)C1 [Compound 33, 6-(3-ethyl-3-phenyl-azetidin-1-yl)-N, 8-dimethyl-[1,2,4]triazolo[1,5-a]pyridine-2-carboxamide] | ***** (>2.5° C.=*****) | 
8 | Cc1cc(N2CCC(C)(c3ccccn3)C2)cn2nc(C(=O)NC3CCN(c4cccc(C(=O)O)n4)CC3)nc12 (stereo not shown) [Compound 34, 6-[4-[[8-methyl-6-[3-methyl-3-(2-pyridyl)pyrrolidin-1-yl]-[1,2,4]triazolo[1,5-a]pyridine-2-carbonyl]amino]-1-piperidyl]pyridine-2-carboxylic acid] | **** (>1.5-2.5° C.=****) | 
9 | Cc1cc(N2CCC(C)(c3nnn(C)n3)C2)cn2nc(C(=O)N3C[C@@H]4CN(c5cccc(C(=O)O)n5)C[C@@H]4C3)nc12 (stereo partly shown) [Compound 35, 6-[5-[8-methyl-6-[3-methyl-3-(2-methyltetrazol-5-yl)pyrrolidin-1-yl]-[1,2,4]triazolo[1,5-a]pyridine-2-carbonyl]-1,3,3a, 4,6,6a-hexahydropyrrolo[3,4-c]pyrrol-2-yl]pyridine-2-carboxylic acid] | *** (>1-1.5° C.=***) | 
10 | Cc1cc(N2CC[C@](C)(c3ccc(Cl)c(Cl)c3)C2)cn2nc(C(=O)N3CC[C@@]4(CCN(c5cccc(C(=O)O)n5)C4)C3)nc12 [Compound 37, 6-[(5R)-2-[6-[(3R)-3-(3,4-dichlorophenyl)-3-methyl-pyrrolidin-1-yl]-8-methyl-[1,2,4]triazolo[1,5-a]pyridine-2-carbonyl]-2,7-diazaspiro[4.4]nonan-7-yl]pyridine-2-carboxylic acid] | ***** (>2.5° C.=*****) | 
11 | COC(=O)c1cccc(N2C[C@H]3CN(C(=S)c4nc5c(C)cc(N6CCC(C)(c7nnc(C)s7)C6)cn5n4)C[C@H]3C2)n1 (stereo partly shown) [Compound 38, methyl 6-[5-[8-methyl-6-[3-methyl-3-(5-methyl-1,3,4-thiadiazol-2-yl)pyrrolidin-1-yl]-[1,2,4]triazolo[1,5-a]pyridine-2-carbothioyl]-1,3,3a, 4,6,6a-hexahydropyrrolo[3,4-c]pyrrol-2-yl]pyridine-2-carboxylate] | * (0-0.5° C.=*) | 
12 | Cc1cc(N2CC[C@](C)(c3ccccc3)C2)cc2oc(C(=O)N3CC4CN(c5cccc(C(=O)O)n5)CC4C3)nc12 (stereo partly drawn) [Compound 40, 6-(5-(4-methyl-6-((R)-3-methyl-3-phenylpyrrolidin-1-yl)benzo[d]oxazole-2-carbonyl)hexahydropyrrolo[3,4-c]pyrrol-2(1H)-yl)picolinic acid] | ***** (>2.5° C.=*****) | 
13 | CNC(=O)C12COC(c3nc4c(C)cc(N5CC[C@](C)(c6ccccc6)C5)cn4n3)(C1)C2c1n[nH]c(C)n1 (stereo partly shown) [Compound 41] | ***** (>2.5° C.=*****) | 
14 | Cc1cc(N2CC[C@](C)(c3ccccc3)C2)cn2nc(C34CC(CO)(CO3)C4C(N)=O)nc12 (stereo partly shown) [Compound 42] | ***** (>2.5° C.=*****) | 
15 | Cc1nc(C2C3(CO)COC2(c2nc4c(C)cc(N5CC[C@](C)(c6ccccc6)C5)cn4n2)C3)n[nH]1 (stereo partly shown) [Compound 43] | ***** (>2.5° C.=*****) | 
16 | Cc1cc(N2CC[C@](C)(c3ccccc3)C2)cn2nc(C34CC(CN)(CO3)C4C(N)=O)nc12 (stereo partly shown) [Compound 44] | ***** (>2.5° C.=*****) | 
17 | Cc1cc(N2CC[C@](C)(c3ccccc3)C2)cn2nc(C34CC(C(N)=O)(CO3)C4C(N)=O)nc12 (stereo partly shown) [Compound 45] | ***** (>2.5° C.=*****) | 
18 | Cc1nc(C2C3(CN)COC2(c2nc4c(C)cc(N5CC[C@](C)(c6ccccc6)C5)cn4n2)C3)n[nH]1 (stereo partly shown) [Compound 46] | ***** (>2.5° C.=*****) | 
19 | Cc1cc(N2CC[C@](C)(c3ccccc3)C2)cn2nc(C34CC(=O)NC(N)(CO3)C4)nc12 (stereo partly shown) [Compound 47] | ***** (>2.5° C.=*****) | 
20 | Cc1nc(C2C3(N)COC2(c2nc4c(C)cc(N5CC[C@](C)(c6ccccc6)C5)cn4n2)C3)n[nH]1 (stereo partly shown) [Compound 48] | ***** (>2.5° C.=*****) | 
21 | Cc1cc(N2CC[C@](C)(c3ccccc3)C2)cn2nc(C34CC(CO)(CO3)C4C#N)nc12 (stereo partly shown) [Compound 49] | ***** (>2.5° C.=*****) | 
22 | Cc1cc(N2CC[C@](C)(c3ccccc3)C2)cn2nc(C34CC(N(C)C)(CO3)C4CO)nc12 (stereo partly shown) [Compound 50] | ***** (>2.5° C.=*****) | 
23 | CC[C@]1(c2ccccc2)CCN(c2cc(C)c3nc(C45CC(N)(CO4)C5)nn3c2)C1 [Compound 51] | ** (>0.5-1 °C =**) | 

Row | SMILES | DSF [1] | DSF
24 | CC(=O)NC12COC(c3nc4c(C)cc(N5CC[C@](C)(c6ccccc6)C5)cn4n3)(C1)C2 [Compound 52] | ***** (>2.5° C.=*****) | 
25 | Cc1cc(N2CC[C@](C)(c3ccccc3)C2)cn2nc(C34CCC(NC(=O)CC(C)(C)O)(C3)O4)nc12 (stereo partly shown) [Compound 53] | ***** (>2.5° C.=*****) | 
26 | CCNC(=O)C12COC(c3nc4c(C)cc(N5CC[C@](C)(c6ccccc6)C5)cn4n3)(C1)C2 [Compound 54] | ***** (>2.5° C.=*****) | 
27 | Cc1cc(N2CC[C@](C)(c3ccccc3)C2)cn2nc(C34CC(C(N)=O)(CO3)C4)nc12 [Compound 55] | ***** (>2.5° C.=*****) | 
28 | Cc1nnc(CNC23COC(c4nc5c(C)cc(N6CC[C@](C)(c7ccccc7)C6)cn5n4)(C2)C3)[nH]1 [Compound 56] | ***** (>2.5° C.=*****) | 
29 | Cc1cc(OCC2(c3ccccc3)CC2)cn2nc(C34CC(N)(CO3)C4)nc12 [Compound 57] | ***** (>2.5° C.=*****) | 
30 | Cc1cc(N2CC[C@](C)(c3ccccc3)C2)cn2nc(C34CC(CN)(CO3)C4)nc12 [Compound 58] | ***** (>2.5° C.=*****) | 
31 | C[C@]1(c2ccccc2)CCN(c2cc(CO)c3nc(C45CC(N)(CO4)C5)nn3c2)C1 [Compound 59] | ***** (>2.5° C.=*****) | 
32 | Cc1cc(N2CC[C@](C)(c3ccccc3)C2)cn2nc(C34CC(CO)(CO3)C4)nc12 [Compound 60] | ***** (>2.5° C.=*****) | 
33 | Cc1cc(OC[C@H](C)c2ccccc2)cn2nc(C34CC(N)(CO3)C4)nc12 [Compound 61] | **** (>1.5-2.5° C.=****) | 
34 | Cc1cc(N2CC[C@](C)(c3ccccc3)C2)cn2nc(C34CC(NC(=O)Cn5ncnc5C)(CO3)C4)nc12 [Compound 62] | ***** (>2.5° C.=*****) | 
35 | Cc1cc(N2CC[C@](C)(c3ccccc3)C2)cn2nc(C34CC(N5CC6C(C5)C6C(=O)O)(CO3)C4)nc12 (stereo partly shown) [Compound 63] | ***** (>2.5° C.=*****) | 
36 | Cc1cc(N2CC[C@](C)(c3ccccc3)C2)cn2nc(C34CCC(N)(CC3)CO4)nc12 [Compound 64] | ***** (>2.5° C.=*****) | 
37 | Cc1cc(N2CC[C@](C)(c3ccccc3)C2)cn2nc(C34CC(CN)(C3)OC4(C)C)nc12 [Compound 65] | **** (>1.5-2.5° C.=****) | 
38 | Cc1cc(N2CC[C@](C)(c3ccccc3)C2)cn2nc(C34CCC(N)(CO3)C4)nc12 (stereo partly shown) [Compound 66] | ***** (>2.5° C.=*****) | 
39 | Cc1cc(N2CC[C@](C)(c3ccccc3)C2)cn2nc([C@@]34CO[C@@H](C3)C(N)C4)nc12 (stereo partly shown) [Compound 67] | **** (>1.5-2.5° C.=****) | 
40 | Cc1cc(N2CC[C@](C)(c3ccccc3)C2)cn2nc([C@]34CO[C@H](C3)C(N)C4)nc12 (stereo partly shown) [Compound 68] | **** (>1.5-2.5° C.=****) | 
41 | Cc1cc(N2CC[C@](C)(c3ccccc3)C2)cn2nc(C34COC(C3)C4C(N)=O)nc12 (stereo partly shown) [Compound 69] | **** (>1.5-2.5° C.=****) | 
42 | Cc1cnc(C2C3COC2(c2nc4c(C)cc(N5CC[C@](C)(c6ccccc6)C5)cn4n2)C3)[nH]1 (stereo partly shown) [Compound 70] | ***** (>2.5° C.=*****) | 
43 | Cc1cc(N2CC[C@](C)(c3ccccc3)C2)cn2nc(C34CC(CO3)C4C(=O)NCC(C)(C)O)nc12 (stereo partly shown) [Compound 71] | ***** (>2.5° C.=*****) | 
44 | Cc1cc(N2CC[C@](C)(c3ccccc3)C2)cn2nc(C34CC(CO3)C4C(C)(C)O)nc12 (stereo partly shown) [Compound 73] | ***** (>2.5° C.=*****) | 
45 | Cc1n[nH]c(C2C3COC2(c2nc4c(C)cc(N5CC[C@](C)(c6ccccc6)C5)cn4n2)C3)n1 (stereo partly shown) [Compound 74] | ***** (>2.5° C.=*****) | 
46 | Cc1nnc(C2C3COC2(c2nc4c(C)cc(N5CC[C@](C)(c6ccccc6)C5)cn4n2)C3)o1 (stereo partly shown) [Compound 75] | ***** (>2.5° C.=*****) | 
